Measured values published in paper PMC6747274, “Multifunctional Peptides from Spanish Dry-Cured Pork Ham: Endothelial Responses and Molecular Modeling Studies” (International Journal of Molecular Sciences, 2019).
Several values for one entry are separate records, joined by “and”; a condition that tells them apart may be missing. Equal values may be shown once. Entries after “also recorded” stand apart in the source; their conditions may differ. Where no end group is shown, it is not given here.

Key:
[1] = target: human ACE (Homo sapiens, UniProt P12821); experiment: Human ACE inhibition assay (lysate of ACE-transfected EA.hy926 cells, HHL substrate, HPLC)
Sequence of human ACE (P12821 30-1306): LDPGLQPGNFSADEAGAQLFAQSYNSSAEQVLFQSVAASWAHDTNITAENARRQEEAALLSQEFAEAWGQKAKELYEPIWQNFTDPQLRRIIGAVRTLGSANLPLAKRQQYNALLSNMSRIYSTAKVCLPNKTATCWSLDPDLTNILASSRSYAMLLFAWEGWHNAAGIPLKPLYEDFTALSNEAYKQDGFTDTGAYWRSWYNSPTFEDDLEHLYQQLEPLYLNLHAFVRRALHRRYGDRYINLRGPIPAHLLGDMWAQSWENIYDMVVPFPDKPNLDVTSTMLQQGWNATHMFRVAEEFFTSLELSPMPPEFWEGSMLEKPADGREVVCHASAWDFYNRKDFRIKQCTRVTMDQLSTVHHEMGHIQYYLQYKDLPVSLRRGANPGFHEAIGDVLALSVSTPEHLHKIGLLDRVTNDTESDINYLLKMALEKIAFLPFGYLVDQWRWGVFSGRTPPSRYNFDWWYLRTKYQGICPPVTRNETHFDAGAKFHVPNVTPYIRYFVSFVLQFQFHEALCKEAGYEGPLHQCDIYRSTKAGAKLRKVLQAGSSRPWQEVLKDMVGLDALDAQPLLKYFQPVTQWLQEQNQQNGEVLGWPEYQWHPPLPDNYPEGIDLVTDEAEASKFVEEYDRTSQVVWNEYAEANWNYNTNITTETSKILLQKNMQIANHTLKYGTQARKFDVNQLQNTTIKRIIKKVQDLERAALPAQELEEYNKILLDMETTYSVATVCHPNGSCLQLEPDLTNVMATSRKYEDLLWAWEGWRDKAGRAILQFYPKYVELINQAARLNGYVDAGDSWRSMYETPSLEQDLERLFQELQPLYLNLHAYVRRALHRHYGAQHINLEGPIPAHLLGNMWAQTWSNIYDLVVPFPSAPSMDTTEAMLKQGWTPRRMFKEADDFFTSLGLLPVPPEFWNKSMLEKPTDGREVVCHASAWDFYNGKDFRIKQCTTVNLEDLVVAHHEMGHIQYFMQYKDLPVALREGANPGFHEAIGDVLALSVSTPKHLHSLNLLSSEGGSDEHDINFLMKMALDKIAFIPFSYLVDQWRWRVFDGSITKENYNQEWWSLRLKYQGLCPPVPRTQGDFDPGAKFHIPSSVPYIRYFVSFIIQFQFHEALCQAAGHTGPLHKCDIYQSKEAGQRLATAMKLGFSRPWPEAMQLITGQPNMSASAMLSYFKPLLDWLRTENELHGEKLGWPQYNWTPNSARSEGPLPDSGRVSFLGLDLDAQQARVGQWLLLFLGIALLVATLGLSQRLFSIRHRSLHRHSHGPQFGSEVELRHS

[2] = test system: protein carbonylation, EA.hy926 cells; experiment: Protein carbonylation (Oxyblot immunoblotting); type: cell-based, human; details: 300 µM H2O2 alone, 30 min
Experimental: Protein carbonyl content is the most general and well-used biomarker of severe oxidative protein damage. Cel ls were treated with synthetic pepti des for 16 h before adding 300 µM H2O2 and leaving for additional 30 min. Protein carbonyl groups level s wer e determined by immuno blotting using the Oxyblot Protein Oxidation Detecti on Kit (Millipore Merck, Temecul a, CA, USA) according to the manufacturer’s protocol. PVDF membranes were blocked with 1% BSA in PBS–0.05% Tween 20 (v/v) (PBS-T) for 1 h at room temperature. The blots were incubated overnight at 20 °C with the polyclonal antibody. Subsequently, blots were washed (3–5 times) with PBS-T and incubated with goat anti-rabbit IgG/HRP c onjugate (1∶300 dilution in PBS/BSA) (Sigma-Al drich Chemical Co., Saint Louis, MO, USA) for 1 h at room temperature. […] In this condition, no signal was detected in the PVDF membr anes (data no t shown). The e mitted chemiluminescent signals wer e detected using a di gital imaging system (Im ageQuant LAS500, Thermo FisherScientific Inc., Rockford, IL, USA) after automatic exposition time. Quantitation of the densitometry plots for chemiluminescence detecti on was c arried out using ImageJ software for the analysis of 1D gels. Peaks were drawn from the di stinct western-blot bands, the area were calculated and normalized to co ntrol conditions.

[3] = test system: IL-6 mRNA, EA.hy926 cells; experiment: IL-6 mRNA expression by RT-PCR in EA.hy926 cells; type: cell-based, human
Experimental: (§1) EA.hy926 cells, the hybrid human umbilical vein endothelial cell line, were obtained from the American Type Culture Collection (ATCC® CRL2922™, Rockville, MD, USA). Cells were cultured in high glucose Dulbecco’s Modified Eagle’s Medium (DMEM), containing 10% heat-inactivated fetal bovine serum (FBS, Biowest, Riverside, CA, USA) and 50 U/mL of penicillin and 50 µg/mL streptomycin (Sigma Aldrich Chemical Co., Saint Louis, MO, USA). Cells were grown in 5% CO2 in a humidified air incubator at 37 °C. Subculture was performed when 90% confluence was reached.
(§2) EA.hy926 were seeded in six-well plates at 0.25 × 10^6 cells/well in DMEM supplemented with 5% FBS. Cells were treated with 300 µM of each peptide for 16 h. Then, 100 ng/mL TNF-α or 300 µM H2O2 were added for an additional 6 h or 24 h, respectively.
(§3) Total RNA was extracted from EA.hy926 cells using 300 µL Trisure™ (Bioline, Taunton, MA, USA) reagent and Direct-zol™ RNA MiniPrep (Zymo Research Irvine, Irvine, CA, USA) according to the manufacturer’s protocol. […] The mRNA levels of the target genes were quantified by RT-PCR using SensiFAST SYBER Hi-ROX Kit (Bioline, Taunton, MA, USA) with StepOnePlus Real-Time PCR System (Applied Biosystems, Foster City, CA, USA). […]
(§4) The relative quantification of gene expression was determined by the comparative fold change […] method. […]

[4] = test system: eNOS mRNA, EA.hy926 cells; experiment: eNOS mRNA expression by RT-PCR in EA.hy926 cells; type: cell-based, human
Experimental: as §1, §2
(§5) Total RNA was extracted from EA.hy926 cells using 300 µL Trisure™ (Bioline, Taunton, MA, USA) reagent and Direct-zol™ RNA MiniPrep (Zymo Research Irvine, Irvine, CA, USA) according to the manufacturer’s protocol. Total RNA was reverse-transcribed into complementary DNA (Sensifast cDNATM Synthesis kit, Bioline, Taunton, MA, USA). The mRNA levels of the target genes were quantified by RT-PCR using SensiFAST SYBER Hi-ROX Kit (Bioline, Taunton, MA, USA) with StepOnePlus Real-Time PCR System (Applied Biosystems, Foster City, CA, USA). Briefly, 5 µL of 1:5 diluted cDNA was added to the qPCR reaction containing 10 μL 2X SensiFAST Mix and 400 nM of each primer in a total volume of 20 μL.
(§6) Specific and validated primers for human glyceraldehyde-3-phosphate dehydrogenase (GADPH), intercellular adhesion marker-1 (ICAM-1), vascular cell adhesion marker-1 (VCAM-1), endothelial nitric oxide synthase (eNOS), interleukin 6 (IL-6), catalase, SOD (Super Oxide Dismutase), NADPH (Nicotinamide Adenine Dinucleotide Phosphate oxidase) and Bax (proapoptosis regulator) genes were used (Sigma-Aldrich Chemical Co., Saint Louis, MO, USA). […]
as §4

[5] = test system: BAX mRNA, EA.hy926 cells; experiment: BAX mRNA expression by RT-PCR in oxidative conditions; type: cell-based, human; details: 300 µM H2O2 alone, 24 h; p = 0.02
Experimental: as §2
as §5, with “μL. […]” for “μL.”
as §4

[6] = test system: EA.hy926 cells; experiment: Annexin V / propidium iodide apoptosis and necrosis by FACS; type: cell-based, human; details: 300 µM H2O2 alone, three independent experiments, mean ± SD
Experimental: as §2
ApoScreen Annexin V Apoptosis Kit-FITC (Southern Biotech, Birmingham, AL, USA) was used to detect the apoptosis rate. After the co-incubation of synthetic peptides and 300 µM H2O2, 0.4 × 10^6 cells were detached and washed in cold PBS, then resuspended in 100 µL Annexin V binding buffer and treated following the manufacturer’s protocol. Annexin V-fluorescein isothiocyanate (FITC) binding was assessed in FL1 channel simultaneously with propidium iodide (FL2 channel). This test discriminates among intact cells (FITC−/PI−), apoptotic cells (FITC+/PI−), and necrotic cells (FITC+/PI+). Assays were performed in triplicate (Table S1).

[7] = test system: VCAM-1 mRNA, EA.hy926 cells; experiment: VCAM-1 mRNA expression by RT-PCR in EA.hy926 cells; type: cell-based, human; details: 100 ng/mL TNF-α alone, 6 h; p < 0.05
Experimental: as §1, §2, §5, §6, §4

[8] = test system: ICAM-1 mRNA, EA.hy926 cells; experiment: ICAM-1 mRNA expression by RT-PCR in EA.hy926 cells; type: cell-based, human; details: 100 ng/mL TNF-α alone, 6 h; p < 0.05
Experimental: as §1, §2, §3, §4

[9] = test system: ICAM-1 protein, EA.hy926 cells; experiment: Intracellular ICAM-1 protein by western blot; type: cell-based, human; details: 100 ng/mL TNF-α alone
Experimental: as §2
Supplementary Material and Methods
1.1. Human ACE Inhibitio n Assa y
Before transfection, the endothelial ACE expressio n level was very low and the p roduct of the enzymatic reaction undete ctable, and so a recombinant construct e ncodi ng the Myc-Tag fused to the ACE ge ne was used. T o overexpress the ACE enzyme, EA.hy926 cel ls were seeded in 24-well plates at 80,000 cells/well and transiently transfec ted with a human Ace ORF mammali an expression plasmid (Sinobiological, Beijing, China) using trans-it X2 reagent ( Myrus®, Madi son, […]
Wisconsin, USA). […] The effi ciency of […]
transfecti on was checked by immunofluorescence. Briefly, 48 h post-transfection, cells were fixed with 4% paraformaldehyd e in culture medi um for 15 min at room temperatur e, blocked with 1% bo vine seru m albumin (BSA) in phosph ate buffer for 30 min followed by 0.2% sapo nin for 30 min to permeabil ize the membr ane. […]
The mRNA level s of the target genes (ICAM-1, VCAM-1, IL-6, eNOS, SOD, catal ase, NADPH, BAX) were quantified by RT-PCR using Se nsiFAST SYBER Hi-ROX Kit (Bioline, Taunton, USA) with StepOnePlus Real-Time PCR Sy stem (Appl ied Bi osystems, Foster City, CA, USA) using speci fi c and vali dated pri mers (Si gma-Al drich Chemical Co., Saint Louis, MO, USA).
The tetr azolium assay (MTT) was used to estimate the cel l viability in the presence of synthetic pepti des (up to 600 µM) and 300 µM H2O2. […] The formazan crystals formed in the intact cel ls were dissol ved in 200 µL dimethyl sulfoxide (DMSO) for 30 min and the absorbance was measured in a micro plate reader at 570 nm and 620 nm of reference. Results wer e calculated as cel l viability (%) = average optic density (OD) of wells/ave rage OD of control wells. […]

[10] = test system: VCAM-1 surface expression, EA.hy926 cells; experiment: VCAM-1 surface expression by flow cytometry; type: cell-based, human; details: 100 ng/mL TNF-α alone
Experimental: as §1, §2
To measure adhesion molecule content in human endothelial cells by flow cytometry, the cell monolayer was detached and fixed before immunofluorescence labelling. […] Markers were set according to the negative controls to quantify the percentage of positively stained cells. Mean Fluorescence Intensity (MFI) was calculated for each antigen (MFI of total stained cells-MFI of negative control cells).

[11] = test system: ICAM-1 surface expression, EA.hy926 cells; experiment: ICAM-1 surface expression by flow cytometry (MFI); type: cell-based, human
Experimental: as §1, §2
To measure adhesion molecule content in human endothelial cells by flow cytometry, the cell monolayer was detached and fixed before immunofluorescence labelling. The following antibodies were used per sample: 20 µL anti-ICAM-1/CD54-phycoerythrin (PE) (clone HA58, BD Biosciences, Franklin Lakes, NJ, USA) and 5 µL anti-VCAM-1/CD106-PerCP-Cy5.5 (clone 51–10C9; BD Biosciences, San Jose, CA, USA), according to the manufacturer’s protocol. Stained cells (10,000 events) were examined by flow cytometry (FACS Calibur, Becton Dickinson, Mountain View, CA, USA) in a simultaneous two-color analysis with FL2 (PE) and FL3 (PerCP-Cy5.5) channels. Markers were set according to the negative controls to quantify the percentage of positively stained cells. Mean Fluorescence Intensity (MFI) was calculated for each antigen (MFI of total stained cells-MFI of negative control cells).

[12] = test system: inflammatory markers (IL-6 and eNOS); details: spontaneous hypertensive rats, DNA microarray; cited from earlier work
Text: In fact, multifunctional peptides interfere with more than one biological pathway, such as NO production, oxidative stress, and inflammation. […] Our interest in the use of an in vitro model of endothelial dysfunction was to further understand the reg ...

[13] = 100 ng/mL TNF-α alone, 6 h, p < 0.05

KPVAAP [BP1]
IC50 [1]: 59.2 ± 3.8 µM

OO [H2O2, reference compound]
protein carbonylation level [2]: significantly increased | IL-6 mRNA expression upregulation ([3]; 300 µM H2O2 alone, 24 h, p = 0.001): 1.84 fold | eNOS mRNA expression increase ([4]; 300 µM H2O2 alone, 24 h, p = 0.01): 3.3 fold | BAX expression increase [5]: 1.5 fold | Necrosis (AnV+/PI+), % cells ([6]; p = 0.01 vs control (1.45 ± 0.24)): 18.56 ± 3.38% and 18% | Apoptosis (AnV+/PI-), % cells ([6]; p = 0.03 vs control (0.90 ± 0.36)): 10.37 ± 1.33% and 10%

TNF-α
VCAM-1 mRNA expression vs control [7]: increased | IL-6 mRNA expression vs control [3, 13]: increased | eNOS mRNA expression vs control [4, 13]: decreased | ICAM-1 mRNA expression vs control [8]: increased | expression of 82–85 kDa protein corresponding to ICAM-1 (western blot) [9]: induced | VCAM-1 surface staining after TNF-α [10]: undetected; also recorded: hardly detectable | ICAM-1 MFI ([11]; 100 ng/mL TNF-α alone, six independent experiments, mean ± SD, p = 0.0003 vs control (71.36 ± 8.31)): 1271.91 ± 158.54 | ICAM-1 MFI on cell surface (in words) ([11]; TNF-α alone vs control, p = 0.0003): increase

Val-Pro-Pro [VPP, milk-derived peptide]
inflammatory markers (IL-6 and eNOS) [12]: decrease in inflammatory markers (IL-6 and eNOS)

KPGRP [BP3]
IC50 [1]: 486 ± 43.5 µM

Ile-Pro-Pro [IPP, milk-derived peptide]
inflammatory markers (IL-6 and eNOS) [12]: decrease in inflammatory markers (IL-6 and eNOS)
